What was measured:
Abutilon theophrasti = assay: Soil treatment herbicidal test, weed killing rate, Abutilon theophrasti; assay type: in vivo; conditions: 672 h, 250 g per hectare, after 4 weeks, read-out: herbicidal activity (weed killing rate) with respect to Abutilon theophrasti
Method: (§1) POA allylphenyl ether (4.1 parts by weight), POE-POP glycol (1 part by weight), POE sorbitan laurate (0.8 parts by weight), glycerin (2.6 parts by weight), dimethylformamide (65.9 parts by weight), N-methylpyrrolidone (5.1 parts by weight), cyclohexanone (15.4 parts by weight), and aromatic hydrocarbons (5.1 parts by weight) were mixed and dissolved to prepare an emulsion. The compound of the present invention (4 mg) was dissolved in this emulsion (100 μL) to prepare a test emulsion. POA means “polyoxyalkylene”, POE means “polyoxyethylene”, and POP means “polyoxypropylene”.
(§2) A 70 cm^2 pot was filled with soil, and seeds of Digitaria ciliaris, Setaria faberi, Abutilon theophrasti and Amaranthus blitum were sown into the surface layer which was covered lightly with soil. The next day, the above test emulsion was diluted so as to achieve a predetermined amount of active ingredient and sprayed on the soil surface with a small sprayer at a spray water volume of 2,860 L per hectare.
(§3) After 4 weeks, the above ground weights of weeds in the untreated and treated areas were measured for each weed, and the weed killing rate was calculated by the following calculation formula.
(§4) Weed killing rate (%)=[(above ground weight of weeds in untreated area)−(above ground weight of weeds in treated area)/(above ground weight of weeds in untreated area)]×100

Amaranthus blitum = assay: Soil treatment herbicidal test, weed killing rate, Amaranthus blitum; assay type: in vivo; conditions: 672 h, 250 g per hectare, after 4 weeks, read-out: herbicidal activity (weed killing rate) with respect to Amaranthus blitum
Method: as §1, §2, §3, §4

Compound	pest or weed control at 250 g/ha (Abutilon theophrasti)	pest or weed control at 250 g/ha (Amaranthus blitum)	melting point
COC12OC1(c1ccc(C(F)(F)F)nc1S(C)(=O)=O)C=NN(C)C2=O (centres unmarked) [Compound A-1]	≥ 80%	≥ 80%	
COC12OC1(c1ncc(Cl)cc1S(C)(=O)=O)C=NN(C)C2=O (centres unmarked) [Compound A-2]	≥ 80%		
COC12OC1(c1ccc(C(F)(F)F)nc1S(=O)(=O)N1CCOCC1)C=NN(C)C2=O (centres unmarked) [Compound A-4]	≥ 80%	≥ 80%	
COCCOCc1nc(C(F)(F)F)ccc1C12C=NN(C)C(=O)C1(OC)O2 (centres unmarked) [Compound A-5]	≥ 80%	≥ 80%	
COC12OC1(c1ncc(C(F)(F)F)cc1S(C)(=O)=O)C=NN(C)C2=O (centres unmarked) [Compound A-6]	≥ 80%	≥ 80%	
COC12OC1(c1cc3cccnc3nc1C(F)(F)F)C=NN(C)C2=O (centres unmarked) [Compound A-7]	≥ 80%	≥ 80%	203 to 210 °C
COC12OC1(c1cnc(C(F)(F)F)cc1S(C)(=O)=O)C=NN(C)C2=O (centres unmarked) [Compound A-8]	≥ 80%	≥ 80%	
COC12OC1(c1cc3cccnc3c(Cl)c1C(F)(F)F)C=NN(C)C2=O (centres unmarked) [Compound A-9]			238 to 239 °C
COC12OC1(c1nn(C)c(=O)n(-c3ccc(F)cc3)c1=O)C=NN(C)C2=O (centres unmarked) [Compound A-10]			180 to 182 °C
COC12OC1(c1ccc(C(F)(F)F)n(C)c1=O)C=NN(C)C2=O (centres unmarked) [Compound A-11]			128 to 130 °C
COC12OC1(c1cn(C)c(=O)n(-c3ccc(F)cc3)c1=O)C=NN(C)C2=O (centres unmarked) [Compound A-17]			191 to 194 °C
COC12OC1(c1cc3ccncc3n(-c3ccc(F)cc3)c1=O)C=NN(C)C2=O (centres unmarked) [Compound A-18]			175 to 179 °C
COC12OC1(c1nn(C)c(=O)c(C)c1Cl)C=NN(C)C2=O (centres unmarked) [Compound A-23]	≥ 80%		153 to 155 °C
COC12OC1(c1ccc(C(F)(F)F)c3ncccc13)C=NN(C)C2=O (centres unmarked) [Compound A-24]	≥ 80%	≥ 80%	171 to 172 °C
COC12OC1(c1cc(C(F)(F)F)nn1CS(C)(=O)=O)C=NN(C)C2=O (centres unmarked) [Compound A-25]	≥ 80%	≥ 80%	
